Columns and labels:
Format in all cases: biochemical
ITK = target: T1, ITK (Homo sapiens, UniProt Q08881); assay: Inhibition of a panel of kinases, in vitro HotSpot kinase assay: ITK; conditions: D-compounds panel data; 1 μM ATP
T1 sequence (Q08881 1-620): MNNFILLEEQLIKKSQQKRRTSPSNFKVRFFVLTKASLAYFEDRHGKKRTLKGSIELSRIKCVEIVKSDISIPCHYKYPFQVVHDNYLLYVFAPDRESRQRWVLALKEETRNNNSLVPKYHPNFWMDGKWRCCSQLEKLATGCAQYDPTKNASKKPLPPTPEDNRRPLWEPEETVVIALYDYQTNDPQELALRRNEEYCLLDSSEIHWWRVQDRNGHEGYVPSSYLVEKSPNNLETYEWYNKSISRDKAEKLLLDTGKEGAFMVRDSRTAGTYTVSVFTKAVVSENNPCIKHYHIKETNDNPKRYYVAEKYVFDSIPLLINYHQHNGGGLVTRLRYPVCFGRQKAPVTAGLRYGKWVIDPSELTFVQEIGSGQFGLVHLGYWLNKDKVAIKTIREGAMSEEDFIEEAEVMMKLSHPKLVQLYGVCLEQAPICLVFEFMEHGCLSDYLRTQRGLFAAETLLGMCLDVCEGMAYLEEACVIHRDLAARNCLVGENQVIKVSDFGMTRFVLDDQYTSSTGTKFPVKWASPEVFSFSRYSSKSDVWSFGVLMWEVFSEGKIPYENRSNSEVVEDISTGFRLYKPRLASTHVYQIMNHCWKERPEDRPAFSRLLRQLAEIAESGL
Procedure: (§1) The degree of inhibition of a panel of kinases is determined using the in vitro HotSpot kinase assay (purified enzymes, ^33P-ATP, an appropriate substrate and 1 μM ATP).

BTK-WT = target: T2, BTK-WT (Homo sapiens, UniProt Q06187); assay: Btk in vitro inhibitory activity (one of Method A TR-FRET, Method B electrophoretic mobility shift, Method C radiometric filter binding); conditions: D-compounds panel data; read-out: IC50 BTK-WT
T2 construct: purified from insect cells as a full-length construct containing an N-terminal 6X-His tag; His6 (N); made in house; host or cells: insect cells (baculovirus Sf21 in Method B)

TEC = target: T3, TEC (Homo sapiens, UniProt P42680); assay: Inhibition of a panel of kinases, in vitro HotSpot kinase assay: TEC; conditions: D-compounds panel data; 1 μM ATP
T3 sequence (P42680 1-631): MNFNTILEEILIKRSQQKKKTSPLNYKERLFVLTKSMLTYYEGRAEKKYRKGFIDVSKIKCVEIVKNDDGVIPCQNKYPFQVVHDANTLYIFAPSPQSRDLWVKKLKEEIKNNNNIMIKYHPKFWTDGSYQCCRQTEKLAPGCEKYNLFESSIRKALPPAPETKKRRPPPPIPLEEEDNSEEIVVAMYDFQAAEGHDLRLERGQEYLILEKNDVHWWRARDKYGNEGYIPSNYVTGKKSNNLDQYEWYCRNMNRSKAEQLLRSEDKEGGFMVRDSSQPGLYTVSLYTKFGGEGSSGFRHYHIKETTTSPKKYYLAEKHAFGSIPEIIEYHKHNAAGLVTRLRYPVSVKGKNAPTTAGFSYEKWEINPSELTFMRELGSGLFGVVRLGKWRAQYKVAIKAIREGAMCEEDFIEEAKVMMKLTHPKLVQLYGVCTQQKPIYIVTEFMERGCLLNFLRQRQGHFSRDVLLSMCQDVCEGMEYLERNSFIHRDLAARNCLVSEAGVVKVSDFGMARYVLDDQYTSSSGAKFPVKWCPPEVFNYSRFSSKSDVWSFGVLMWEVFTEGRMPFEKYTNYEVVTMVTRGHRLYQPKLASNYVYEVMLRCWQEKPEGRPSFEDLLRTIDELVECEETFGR
Procedure: as §1

SRC = SRC (Homo sapiens, UniProt P12931); assay: Inhibition of a panel of kinases, in vitro HotSpot kinase assay: SRC; conditions: D-compounds panel data; 1 μM ATP
Procedure: as §1

SRC, sequence (P12931 whole entry): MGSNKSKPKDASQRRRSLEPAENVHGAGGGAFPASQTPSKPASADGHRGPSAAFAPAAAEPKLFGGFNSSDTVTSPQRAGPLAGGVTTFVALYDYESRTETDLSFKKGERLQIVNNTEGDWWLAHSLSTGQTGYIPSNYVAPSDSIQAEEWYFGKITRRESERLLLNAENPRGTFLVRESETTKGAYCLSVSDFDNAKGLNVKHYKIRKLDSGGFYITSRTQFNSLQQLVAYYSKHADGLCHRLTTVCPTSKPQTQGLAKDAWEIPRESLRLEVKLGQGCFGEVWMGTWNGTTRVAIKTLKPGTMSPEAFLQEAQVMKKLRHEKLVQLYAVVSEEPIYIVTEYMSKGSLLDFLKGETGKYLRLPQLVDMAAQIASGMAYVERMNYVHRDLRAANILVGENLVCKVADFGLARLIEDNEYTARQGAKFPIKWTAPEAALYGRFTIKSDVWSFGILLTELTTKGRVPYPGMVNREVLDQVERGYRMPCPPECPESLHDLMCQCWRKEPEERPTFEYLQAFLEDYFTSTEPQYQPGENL
T2 sequence (Q06187 whole entry): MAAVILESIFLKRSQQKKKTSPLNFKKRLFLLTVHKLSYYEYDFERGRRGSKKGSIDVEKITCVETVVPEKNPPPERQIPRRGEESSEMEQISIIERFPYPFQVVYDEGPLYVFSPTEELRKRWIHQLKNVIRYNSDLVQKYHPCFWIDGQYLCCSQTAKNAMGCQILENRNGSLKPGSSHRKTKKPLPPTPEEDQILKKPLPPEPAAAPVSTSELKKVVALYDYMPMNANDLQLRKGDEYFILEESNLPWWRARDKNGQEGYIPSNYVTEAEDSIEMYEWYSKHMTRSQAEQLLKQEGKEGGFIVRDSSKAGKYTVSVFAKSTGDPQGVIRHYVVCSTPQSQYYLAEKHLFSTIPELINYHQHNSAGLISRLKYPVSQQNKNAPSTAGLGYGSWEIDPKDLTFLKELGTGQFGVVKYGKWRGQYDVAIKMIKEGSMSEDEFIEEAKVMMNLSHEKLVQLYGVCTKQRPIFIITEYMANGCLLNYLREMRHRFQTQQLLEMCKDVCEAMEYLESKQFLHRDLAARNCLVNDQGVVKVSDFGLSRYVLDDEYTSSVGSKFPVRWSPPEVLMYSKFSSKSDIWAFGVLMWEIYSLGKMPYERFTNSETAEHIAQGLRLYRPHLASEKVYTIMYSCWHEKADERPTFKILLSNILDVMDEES

Row | IC50 (ITK) [µM] | IC50 (BTK-WT) [µM] | IC50 (TEC) [µM] | IC50 (SRC) [µM] | SMILES
1 | > 10 | 0.1 to 1 | 0.1 to 1 | > 10 | C[C@@H]1[C@H](NC(=O)c2ccc(C3CC3)cc2F)CCCN1c1cnc(C(N)=O)c(Nc2nc3c(s2)CN(C)CC3)n1 [Example D-62, 5-[(2R,3R)-3-(4-cyclopropyl-2-fluorobenzamido)-2-methylpiperidin-1-yl]-3-({5-methyl-4H,5H,6H,7H-[1,3]thiazolo[5,4-c]pyridin-2-yl}amino)pyrazine-2-carboxamide]
2 | > 10 | 1 to 10 | > 10 | > 10 | Cc1csc(Nc2nc(N3CCC[C@@H](NC(=O)c4ccc(C5CC5)cc4F)[C@H]3C)cnc2C(N)=O)n1 [Example D-63, 5-[(2R,3R)-3-(4-cyclopropyl-2-fluorobenzamido)-2-methylpiperidin-1-yl]-3-[(4-methyl-1,3-thiazol-2-yl)amino]pyrazine-2-carboxamide]
3 | 1 to 10 | 0.01 to 0.1 | 0.1 to 1 | 0.1 to 1 | Cc1cc(Nc2nc(N3CCC[C@@H](NC(=O)N(C)C)[C@H]3CO)cnc2C(N)=O)sn1 [Example D-67, 5-[(2S,3R)-3-[(dimethylcarbamoyl)amino]-2-(hydroxymethyl)piperidin-1-yl]-3-[(3-methyl-1,2-thiazol-5-yl)amino]pyrazine-2-carboxamide]
4 | > 10 | 1 to 10 | > 10 | 1 to 10 | Cc1cc(Nc2nc(N3CCC[C@H](NC(=O)N(C)C)[C@@H]3CO)cnc2C(N)=O)sn1 [Example D-68, 5-[(2R,3S)-3-[(dimethylcarbamoyl)amino]-2-(hydroxymethyl)piperidin-1-yl]-3-[(3-methyl-1,2-thiazol-5-yl)amino]pyrazine-2-carboxamide]
5 | 1 to 10 | 0.01 to 0.1 | 1 to 10 | 0.1 to 1 | CN1CCN(C(=O)c2ccc(Nc3nc(N[C@H]4CC[C@H](NC(=O)N(C)C)CC4)cnc3C(N)=O)cc2)CC1 [Example D-69, 3-{[4-(4-methylpiperazine-1-carbonyl)phenyl]amino}-5-{[(1 r,4r)-4-[(dimethylcarbamoyl)amino]cyclohexyl]amino}pyrazine-2-carboxamide]
6 | 1 to 10 | 0.01 to 0.1 | 1 to 10 | 0.1 to 1 | CN1CCN(C(=O)c2ccc(Nc3nc(N[C@H]4CC[C@@H](NC(=O)N(C)C)CC4)cnc3C(N)=O)cc2)CC1 [Example D-72, 3-{[4-(4-methylpiperazine-1-carbonyl)phenyl]amino}-5-{[(1s,4s)-4-[(dimethylcarbamoyl)amino]cyclohexyl]amino}pyrazine-2-carboxamide]
7 | 0.1 to 1 | ≤ 0.01 | 0.01 to 0.1 | 0.1 to 1 | C[C@@H]1[C@H](NC(=O)c2ccc(C3CC3)cc2F)CCCN1c1cnc(C(N)=O)c(Nc2ccc(N3CCOCC3)cc2)n1 [Example D-73, 5-[(2R,3R)-3-(4-cyclopropyl-2-fluorobenzamido)-2-methylpiperidin-1-yl]-3-{[4-(morpholin-4-yl)phenyl]amino}pyrazine-2-carboxamide]
8 | > 10 | 0.1 to 1 | 1 to 10 | 1 to 10 | Cc1cc(Nc2nc(N3C[C@H](NC(=O)N(C)C)CC[C@@H]3C)cnc2C(N)=O)sn1 [Example D-74, 5-[(2S,5R)-5-[(dimethylcarbamoyl)amino]-2-methylpiperidin-1-yl]-3-[(3-methyl-1,2-thiazol-5-yl)amino]pyrazine-2-carboxamide]
9 | 1 to 10 | 0.01 to 0.1 | 0.1 to 1 | 0.1 to 1 | Cc1cc(Nc2nc(N3C[C@@H](NC(=O)N(C)C)CC[C@H]3C)cnc2C(N)=O)sn1 [Example D-75, 5-[(2R,5S)-5-[(dimethylcarbamoyl)amino]-2-methylpiperidin-1-yl]-3-[(3-methyl-1,2-thiazol-5-yl)amino]pyrazine-2-carboxamide]

Row | SMILES | IC50 (ITK) [µM] | IC50 (BTK-WT) [µM] | IC50 (TEC) [µM] | IC50 (SRC) [µM]
10 | CN(C)C(=O)N[C@@H]1CCCN(c2cnc(C(N)=O)c(Nc3ccc(C4(C)CCN(C5CCCC5)CC4)cc3)n2)[C@@H]1CO [Example D-58, 3-{[4-(1-cyclopentyl-4-methylpiperidin-4-yl)phenyl]amino}-5-[(2S,3R)-3-[(dimethylcarbamoyl)amino]-2-(hydroxymethyl)piperidin-1-yl]pyrazine-2-carboxamide] | 1 to 10 | ≤ 0.01 | 0.1 to 1 | 0.1 to 1
11 | CN(C)C(=O)N[C@H]1CCCN(c2cnc(C(N)=O)c(Nc3ccc(C4(C)CCN(C5CCCC5)CC4)cc3)n2)[C@H]1CO [Example D-59, 3-{[4-(1-cyclopentyl-4-methylpiperidin-4-yl)phenyl]amino}-5-[(2R,3S)-3-[(dimethylcarbamoyl)amino]-2-(hydroxymethyl)piperidin-1-yl]pyrazine-2-carboxamide] | 1 to 10 | 0.1 to 1 | > 10 | 1 to 10
12 | CN(C)C(=O)N[C@@H]1CCCN(c2cnc(C(N)=O)c(Nc3ccc(C4(C)CCN(C5CCCC5)CC4)cc3)n2)[C@H]1CO [Example D-60, 3-{[4-(1-cyclopentyl-4-methylpiperidin-4-yl)phenyl]amino}-5-[(2R,3R)-3-[(dimethylcarbamoyl)amino]-2-(hydroxymethyl)piperidin-1-yl]pyrazine-2-carboxamide] | 0.1 to 1 | 0.1 to 1 | 1 to 10 | 0.1 to 1
13 | CN(C)C(=O)N[C@H]1CCCN(c2cnc(C(N)=O)c(Nc3ccc(C4(C)CCN(C5CCCC5)CC4)cc3)n2)[C@@H]1CO [Example D-61, 3-{[4-(1-cyclopentyl-4-methylpiperidin-4-yl)phenyl]amino}-5-[(2S,3S)-3-[(dimethylcarbamoyl)amino]-2-(hydroxymethyl)piperidin-1-yl]pyrazine-2-carboxamide] | 1 to 10 | 0.1 to 1 | > 10 | 1 to 10
14 | C[C@@H]1[C@H](NC(=O)c2ccc(C3CC3)cc2F)CCCN1c1cnc(C(N)=O)c(Nc2ccc(C3(C)CCN(C4CCCC4)CC3)cc2)n1 [Example D-66, 3-{[4-(1-cyclopentyl-4-methylpiperidin-4-yl)phenyl]amino}-5-[(2R,3R)-3-(4-cyclopropyl-2-fluorobenzamido)-2-methylpiperidin-1-yl]pyrazine-2-carboxamide] | 0.01 to 0.1 | ≤ 0.01 | ≤ 0.01 | ≤ 0.01
15 | CN1CCN(C(=O)c2ccc(Nc3nc(N[C@H]4CC[C@H](NC(=O)c5ccc(C6CC6)cc5F)CC4)cnc3C(N)=O)cc2)CC1 [Example D-70, 3-{[4-(4-methylpiperazine-1-carbonyl)phenyl]amino}-5-{[(1 r,4r)-4-(4-cyclopropyl-2-fluorobenzamido)cyclohexyl]amino}pyrazine-2-carboxamide] | 0.1 to 1 | 0.01 to 0.1 | 0.1 to 1 | 0.1 to 1
16 | CN1CCN(C(=O)c2ccc(Nc3nc(N[C@H]4CC[C@@H](NC(=O)c5ccc(C6CC6)cc5F)CC4)cnc3C(N)=O)cc2)CC1 [Example D-71, 3-{[4-(4-methylpiperazine-1-carbonyl)phenyl]amino}-5-{[(1 s,4s)-4-(4-cyclopropyl-2-fluorobenzamido)cyclohexyl]amino}pyrazine-2-carboxamide] | 1 to 10 | 0.01 to 0.1 | 0.1 to 1 | 0.1 to 1

Reference: patent US20210070748A1, “INHIBITORS OF BRUTONS TYROSINE KINASE” (Pharmacyclics LLC, priority 2015, published 2021)
